Reference: patent US11806352B2, “Theobromine for increasing HDL-cholesterol” (UPFIELD EUROPE B.V., priority 2010, dated 2023)
Where “and” joins values, the source holds several entries; their conditions need not be identical. Identical values can stand only once.

Key:
[1] = system: Wistar rats; details: 700 mg/kg body weight; cited from earlier work
[2] = system: Wistar rats; details: rats fed a diet supplemented with 0.3% of theobromine; cited from earlier work
[3] = system: healthy males and females; assay: Example 2: same intervention study, blood pressure; type: in vivo, humans
Description: In a randomized controlled intervention study with 153 healthy males and females the effect of drinks containing cocoa, added theobromine or a combination of cocoa and added theobromine was assessed on HDL cholesterol (HDL-C). As a secondary objective the effect of the various drinks on total cholesterol (TC), LDL cholesterol (LDL-C), Triglycerides (TG) and blood pressure (BP) was assessed.
After a run-in period of 2 weeks the subjects consumed for 4 weeks daily (in the morning one hour before breakfast) 200 ml acidified dairy drink as in table 5, with added to that 1) none (control drink), 2) 5.9 g cocoa powder (Acticoa, Barry-Callebaut) containing about 500 mg polyphenols and 150 mg theobromine 3) about 850 mg synthetic theobromine (Fagron) and 4) 5.9 g cocoa powder containing 500 mg polyphenols and 150 mg theobromine plus added thereto about 850 mg synthetic theobromine (Fagron) (in total about 1 g theobromine). The synthetic theobromine used was: theobromine complying with European Pharmacopeia 5.7, as available from Fagron, Waregem, Belgium.
Inclusion criteria: generally healthy men and pre-menopausal women, age 40-70, with a 10-year risk of developing CHD<10%, not on active cholesterol-lowering or anti-hypertensive treatment and non-smoking. Details of the subject characteristics are set out in table 6.
The statistical analysis was done according to a full 2×2 factorial design including interaction of theobromine and cocoa. Gender within treatment and baseline blood lipids were included in the model as covariates. A 2 sided p-value<0.05 was considered significant.

[4] = system: healthy males and females; assay: Example 2: randomized placebo-controlled 2 by 2 factorial parallel study, dairy drinks, blood lipid profile; type: in vivo, humans
Description: In a randomized controlled intervention study with 153 healthy males and females the effect of drinks containing cocoa, added theobromine or a combination of cocoa and added theobromine was assessed on HDL cholesterol (HDL-C). As a secondary objective the effect of the various drinks on total cholesterol (TC), LDL cholesterol (LDL-C), Triglycerides (TG) and blood pressure (BP) was assessed. […] After a run-in period of 2 weeks the subjects consumed for 4 weeks daily (in the morning one hour before breakfast) 200 ml acidified dairy drink as in table 5, with added to that 1) none (control drink), 2) 5.9 g cocoa powder (Acticoa, Barry-Callebaut) containing about 500 mg polyphenols and 150 mg theobromine 3) about 850 mg synthetic theobromine (Fagron) and 4) 5.9 g cocoa powder containing 500 mg polyphenols and 150 mg theobromine plus added thereto about 850 mg synthetic theobromine (Fagron) (in total about 1 g theobromine). The synthetic theobromine used was: theobromine complying with European Pharmacopeia 5.7, as available from […], Belgium. For preparing the test products containing theobromine, theobromine was dissolved in a 1 M NaOH solution to create a theobromine stock solution, containing approximately 170 mg/ml of thebromine. The various drinks used in the trial have been made using the following processing: • mixing of the pectin with all of the sugar • dispersing the pectin/sugar mix with part of the demi water at 80° C. to prepare a pectin slurry • dissolving smp in the remainder of the demi water at a temperature of 40° C. • adding the cream • adding the xanthan gum under vigorous mixing for 15 minutes • adding the pectin slurry • adding sucralose • (depending on the drink: adding the cacao slowly under vigorous mixing) • (depending on the drink: adding the theobromine solution) • adding the sunflower oil • adding the flavours and colorants • acidifying the premix with lactic acid until pH 4.2 Inclusion criteria: generally healthy men and pre-menopausal women, age 40-70, with a 10-year risk of developing CHD<10%, not on active cholesterol-lowering or anti-hypertensive treatment and non-smoking. Details of the subject characteristics are set out in table 6. Venous blood samples were drawn from the antecubital vein in SST II advance BD tubes in fasting condition (morning, before breakfast) for blood lipid profile (HDL-C, LDL-C, total cholesterol (TC), triglycerides, HDL-C being herein high density lipoprotein cholesterol, and LDL-C herein being low density lipoprotein cholesterol). The blood samples were taken twice at baseline and were repeated twice after the end of the intervention period. All measurements were done with standard laboratory techniques. Serum lipid outcomes were done in the Intention to treat (ITT) and Per Protocol (PP) population. The statistical analysis was done according to a full 2×2 factorial design including interaction of theobromine and cocoa. Gender within treatment and baseline blood lipids were included in the model as covariates. A 2 sided p-value<0.05 was considered significant.

[5] = pair-wise comparison, treatment A = Placebo, 4 weeks
[6] = after 4 weeks, ITT, baseline ratio and gender as covariables
[7] = fasting blood, after 4 weeks daily 200 ml drink, ITT, baseline and gender as covariables

Cn1cnc2c1c(=O)[nH]c(=O)n2C [Theobromine, 2,6-dihydroxy-3,7-dimethylpurine]
HDL-cholesterol [1]: elevated | LDL-cholesterol [1]: decreased | total cholesterol [1]: decreased | triglycerides [1]: decreased | Serum total cholesterol [2]: significantly increased | effect on blood pressure ([3]; 4 weeks, vs control): no significant effect | DBP, Mean ([3]; after 4 weeks, ITT, baseline DBP and gender as covariables): 75.0 mm Hg | SBP, Mean ([3]; after 4 weeks, ITT, baseline SBP and gender as covariables): 121.2 mm Hg | DBP, Change (A − B) [3, 5]: −0.20 mm Hg | SBP, Change (A − B) [3, 5]: 2.55 mm Hg | HDL-C increase compared to placebo ([4]; 4 weeks): ~10% | Serum LDL-C decrease compared to placebo ([4]; 4 weeks): about 5% | Serum LDL-C decrease ([4]; 4 weeks, compared to placebo): 0.18 mmol/L | increase in ApoA1 concentrations ([4]; 4 weeks, main apoprotein found in HDL particles): 0.11 | Triglyceride, Mean ([4]; after 4 weeks, ITT, baseline and gender as covariables): 1.05 mmol/L | HDL-C/LDL-C ratio, Mean [4, 6]: 0.52 | HDL-C/non-HDL-C ratio, Mean [4, 6]: 0.43 | Total cholesterol, Mean ([4]; fasting blood, after 4 weeks daily 200 ml drink, ITT n=143, baseline and gender as covariables): 5.82 mmol/L | HDL-C, Mean [4, 7]: 1.75 mmol/L | LDL-C, Mean [4, 7]: 3.30 mmol/L | HDL-C, Change (A − B) [4, 5]: 0.159 mmol/L | HDL-C/LDL_c ratio, Change (A − B) [4, 5]: 0.12 and 0.117 | HDL-C/non-HDL-C ratio, Change (A − B) [4, 5]: 0.13 and 0.126 | LDL-C, Change (A − B) [4, 5]: -0.184 mmol/L | Total cholesterol, Change (A − B) [4, 5]: -0.038 mmol/L | Triglycerides, Change (A − B) [4, 5]: 0.018 mmol/L | HDL-C, Change (A − B) ([4]; pair-wise comparison, treatment A = Placebo, 4 weeks, listed as theobromine): 0.16 mmol/L
